Tests used:
[1] = target: T1, hα7-wt nAChR-expressing GH4C1 cells (Homo sapiens, UniProt P36544); experiment: Patch-clamp current recording (whole-cell voltage clamp), potentiation of the choline current and PAM type; assay type: cell-based; set-up: key: Type 0 compounds minimally enhance the effect size of the current elicited by 1 mM choline.; Type 1 compounds enhance the effect size of the current elicited by 1 mM choline but minimally alter the kinetics of the receptor.; Type 2 compounds enhance the effect size of the current elicited by 1 mM choline while reducing the rate and/or the extent of desensitization.; Type 3 compounds enhance the effect size of the current elicited by 1 mM choline. When tested at higher concentrations up to 10 μM they completely inhibit desensitization, in particular a 1 mM choline application of 250 milliseconds.; Type 4 compounds allow for an initial desensitization of the receptor followed by a re-opening of the receptor during agonist application; settings: 1 mM choline
T1 construct: expressed in transfected cells
Experimental: The compounds of the present invention are classified as type 1-4, based on qualitative kinetic properties, as determined by whole-cell voltage-clamp recordings. This classification is based on the effect of an α7 PAM compound, as described hereinbefore, on the signal elicited by an agonist application. In particular, said agonist is choline at a concentration of 1 mM. In a preferred experimental setting, said α7 PAM compound and choline are simultaneously applied to the cell, as described hereinafter. Desensitization is defined as the closure of the receptor upon activation during the application of the agonist in whole-cell voltage-clamp electrophysiology measurements seen as the reduction of the […] current after initial activation by the agonist.
The definition of the PAM types 1-4 is described hereinafter: • Type 0 compounds minimally enhance the effect size of the current elicited by 1 mM choline. • Type 1 compounds enhance the effect size of the current elicited by 1 mM choline but minimally alter the kinetics of the receptor. In particular, the rate and the extent of desensitization, elicited by the agonist, is not affected. The compound-modulated response to 1 mM choline, therefore, is a close to linear scaling of the 1 mM choline response in absence of the α7 PAM compound. • Type 2 compounds enhance the effect size of the current elicited by 1 mM choline while reducing the rate and/or the extent of desensitization. • Type 3 compounds enhance the effect size of the current elicited by 1 mM choline. […] At low-potency concentrations of the α7 PAM compound, the agonist-induced activation, which is followed by desensitization, can still be separated from the compound-induced re-opening as an initial inward current-maximum. At higher potency concentrations of the α7 PAM compound, the re-opening occurs faster than the closure due to desensitization so that the initial current-maximum disappears.
A compound was considered to have interesting PAM-like activity when the potentiation of the peak current was at least 200% compared to the control choline response (=100%). Such compounds are classified as belonging to a particular PAM type in the Experimental Part. Compounds not meeting the condition are not classified as belonging to a particular PAM-type.
The compounds also have a potentiating effect on the response to choline when measured by whole-cell patch clamp electrophysiology in GH4C1 cells stably over-expressing the human wild-type α7 receptor.
Patch-Clamp Current Recording
Patch-clamp recording from mammalian cells has provided a powerful means of assessing the function of membrane-bound proteins thought to be subunits of ligand-gated ion channels. Activation of such proteins by endogenous or exogenous ligands cause opening of a pore associated with the receptor through which ions flow down their electrochemical gradient. In the case of the hα7-wt nAChR-expressing GH4C1 recombinant cell line the preferential permeability to calcium of this receptor means that calcium flows into the cell upon activation by ACh, choline and other nicotinic ligands giving rise to a calcium current. Since this receptor rapidly desensitizes in the presence of agonist it is important an application system is used which is capable of very rapid switching of solutions (<100 ms) to prevent partial or full desensitisation of receptor responses coincident with the time of agonist application. Consequently, a second convenient technique to assess the enhancement of nicotinic efficacy is patch-clamp recording from hα7-wt nAChR-expressing GH4C1 cells coupled with a rapid-application system.
• The external recording solution consisted of 152 mM NaCl, 5 mM KCl, 1 mM MgCl2, 1 mM Calcium, 10 mM HEPES; pH 7.3. […]

[2] = target: T2, hα7-wt nAChR (Homo sapiens, UniProt P36544); experiment: Ca2+ flux imaging (FDSS) (Protocol B), potentiation of the choline response; assay type: cell-based; settings: Ca2+ assay as described in D.1; for EC50: "<5" = activity did not reach a top plateau at maximal concentration
T2 construct: expressed in transfected cells
Experimental: Ca^2+ Flux Imaging (FDSS) (Protocol B)
• Hanks buffered saline solution (HBSS, Invitrogen, Belgium), supplemented with 10 mM HEPES (Invitrogen, Belgium), CaCl2 to a final concentration of 5 mM, 0.1% Bovine serum albumin (Sigma-Aldrich NV, Belgium). b) Calcium-Sensitive Dye—Fluo-4AM • Fluo-4AM (Molecular Probes, USA) was dissolved in DMSO containing 10% Pluronic acid (Molecular Probes, USA) to give a stock solution which was diluted in assay buffer supplemented with 5 mM probenicid (Sigma, Aldrich NV, Belgium) to give a final concentration of 2 μM. c) 384-Well Plates • Black 384 well plate black/clear plates, PDL pre-coated (Corning, Incorporated, USA) d) Calcium Flux Measurement • A Functional drug screening system (FDSS, Hamamatsu) was used to measure intracellular free-calcium flux signals. Method
Monolayers of hα7-wt nAChR-expressing cells were grown in multi-well plates, in particular black-sided, transparent bottomed 384 well plates coated with poly-D-lysine for 24 hours prior to loading with a fluorescent calcium indicator, in a particular embodiment loading with fluo-4AM for up to 120 minutes.
PAM activity was detected in real time by applying the compounds to be tested to the loaded cells along with a α7 nicotinic receptor agonist during constant monitoring of cellular fluorescence in a FDSS. Compounds giving peak fluorescent responses greater than the response due to agonist alone, were considered to be α7 nAChR PAM's. In a particular embodiment, the α7 nicotinic receptor agonist was choline, a more particular embodiment choline applied at a sub-maximal concentration of 100 μM. In a further setting of the present invention the compounds to be tested were applied prior to the α7 nicotinic receptor agonist, in a particular embodiment up to 10 minutes prior to the agonist.
A control response to choline was calculated on each plate from the difference in peak in fluorescence in wells receiving either choline or assay buffer alone. Compounds of the present invention were tested at a concentration range from 0.01 μM to 30 μM. Compounds were considered to have an interesting activity when they potentiated the choline signal at least with 200% when tested at a concentration of 30 μM (the efficacy of 100 μM choline was defined as 100% in the absence of a PAM). An EC50 (or pEC50) was determined as a concentration relating to half the maximal effect, when a clear sigmoidal curve with top plateau was obtained.

T2 sequence (P36544 23-502): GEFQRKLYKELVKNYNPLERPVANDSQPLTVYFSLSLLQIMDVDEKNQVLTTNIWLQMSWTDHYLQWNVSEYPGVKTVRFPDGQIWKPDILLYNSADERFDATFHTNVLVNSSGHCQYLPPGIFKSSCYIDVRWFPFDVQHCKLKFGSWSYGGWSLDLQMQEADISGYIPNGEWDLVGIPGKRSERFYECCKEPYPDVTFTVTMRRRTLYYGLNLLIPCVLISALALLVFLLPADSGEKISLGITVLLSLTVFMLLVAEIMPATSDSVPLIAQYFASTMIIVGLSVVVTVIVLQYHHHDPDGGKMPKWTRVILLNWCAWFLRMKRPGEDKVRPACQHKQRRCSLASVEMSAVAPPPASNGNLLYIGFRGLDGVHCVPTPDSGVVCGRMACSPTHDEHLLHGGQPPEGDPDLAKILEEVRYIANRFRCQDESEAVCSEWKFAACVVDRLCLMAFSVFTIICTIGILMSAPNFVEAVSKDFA
T1 sequence (P36544 23-502): as above

SMILES	EC50 [2] [nM]	Emax ([2]; read-out: % Efficacy) [%]	Emax at 30 µM ([2]; @ 30 μM, read-out: % Efficacy) [%]	PAM type [1]
CC[C@H](O)Cn1nc(Nc2ccc(F)c(F)c2)cc1-c1ccnc(C)c1 [compound 45]	1230	800		1
Cc1cc(-c2cc(Nc3cccc(Cl)c3)nn2CC(=O)NCC2CC2)ccn1 [compound 163]	324			2
CCNC(=O)Cn1nc(Nc2ccc3c(c2)OC(F)(F)O3)cc1-c1ccnc(C)c1 [compound 93]	1000			2
CCNc1cc(-c2cc(Nc3ccc(F)c(F)c3)nn2C[C@H](C)O)ccn1 [compound 62]	1320			1
COc1cc(Nc2cc(-c3ccnc(C)c3)n(CC(=O)NCC3CC3)n2)cc(C(F)(F)F)c1 [compound 131]	813			2
CC[C@H](O)Cn1nc(Nc2cc(F)cc(F)c2)cc1-c1ccnc(COC)c1 [compound 71]	1380	700		1
CC[C@H](O)Cn1nc(Nc2cc(Cl)cc(OC)c2)cc1-c1ccnc(C)c1 [compound 122]	1020			1
CNC(=O)Cn1nc(Nc2cc(F)c(F)c(F)c2)cc1-c1ccc2c(c1)OCCO2 [compound 74]	251			2
Cc1cc(-c2cc(Nc3ccc(F)c(F)c3F)nn2CC(=O)NCC2CC2)ccn1 [compound 164]	309	482		2
CC[C@H](O)Cn1nc(Nc2cccc(Cl)c2)cc1-c1ccnc(C)c1 [compound 185, (alphaS)-3-[(3-chlorophenyl)amino]-alpha-ethyl-5-[2-methyl-4-pyridinyl]-1H-pyrazole-1-ethanol]	1580			1
Cc1cc(-c2cc(Nc3cccc(Cl)c3)nn2CC(=O)NC2CC2)ccn1 [compound 123]	1000			2
CCNC(=O)Cn1nc(Nc2ccc(F)c(F)c2F)cc1-c1cc(C)nc(C)c1 [compound 148]	468			
CCNC(=O)Cn1nc(Nc2ccc(F)c(F)c2)cc1-c1ccncc1 [compound 20]	> 10000			
CCNC(=O)Cn1nc(Nc2cc(F)c(F)c(F)c2)cc1-c1ccc2c(c1)OCCO2 [compound 78]	302			
CNC(=O)Cn1nc(Nc2cc(F)c(F)c(F)c2)cc1-c1cccnc1 [compound 15]	> 10000		832	
CNC(=O)Cn1nc(Nc2cc(F)c(F)c(F)c2)cc1-c1ccnc(C)c1 [compound 109]	1780	559		
CCNC(=O)Cn1nc(Nc2cccc(OC(F)(F)F)c2)cc1-c1ccc2c(c1)OCCO2 [compound 80]	204			
CCNC(=O)Cn1nc(Nc2ccc3c(c2)OC(F)(F)O3)cc1-c1ccc2c(c1)OCCO2 [compound 98]	324			
CNC(=O)Cn1nc(Nc2ccc(F)c(F)c2F)cc1-c1cc(C)nc(C)c1 [compound 120]	1150	969		
Cc1ccnc(-c2cc(Nc3ccc(F)c(C(F)(F)F)c3)nn2C[C@H](C)O)c1 [compound 25]	933	500		

More lines, main results first:

EC50 [2] [nM]	Emax ([2]; read-out: % Efficacy) [%]	Emax at 30 µM ([2]; @ 30 μM, read-out: % Efficacy) [%]	SMILES	PAM type [1]
1910			CCNC(=O)Cn1nc(Nc2cccc(C(F)(F)F)c2)cc1-c1ccnc(C)c1 [compound 36]	2
2450			Cc1ccnc(-c2cc(Nc3ccc(F)c(F)c3)nn2CCC(=O)N(C)C)c1 [compound 22]	2
1000			CCNC(=O)Cn1nc(Nc2cc(OC)cc(C(F)(F)F)c2)cc1-c1cc(C)nc(C)c1 [compound 140]	2
1000			Cc1cc(-c2cc(Nc3ccc(F)c(F)c3)nn2CCC(=O)N(C)C)ccn1 [compound 40]	2
912			COc1cc(Cl)cc(Nc2cc(-c3ccnc(C)c3)n(CCC(=O)N(C)C)n2)c1 [compound 126]	2
363	738		Cc1cc(-c2cc(Nc3cccc(OC(F)(F)F)c3)nn2CCC(=O)N(C)C)cc(C)n1 [compound 165]	1
813	632		CNC(=O)Cn1nc(Nc2ccc3c(c2)OC(F)(F)O3)cc1-c1cc(C)nc(C)c1 [compound 130]	2
575			CCNC(=O)Cn1nc(Nc2ccc(F)c(C(F)(F)F)c2)cc1-c1ccnc(C)c1 [compound 38]	2
1230			CN(C)C(=O)CCn1nc(Nc2ccc(F)c(F)c2)cc1-c1ccncc1 [compound 21]	3
417	737		CCNC(=O)Cn1nc(Nc2ccc3c(c2)OC(F)(F)O3)cc1-c1cc(C)nc(C)c1 [compound 153]	2
759			CC[C@H](O)Cn1nc(Nc2cccc(Cl)c2)cc1-c1cc(C)nc(C)c1 [compound 58]	1
151			CC[C@H](O)Cn1nc(Nc2cc(OC)cc(C(F)(F)F)c2)cc1-c1cc(C)nc(C)c1 [compound 101]	
550	627		Cc1cc(-c2cc(Nc3cccc(C(F)(F)F)c3)nn2CCC(=O)N(C)C)cc(C)n1 [compound 178]	
372	768		Cc1cc(-c2cc(Nc3cccc(OC(F)(F)F)c3)nn2CC(=O)NC2CCC2)cc(C)n1 [compound 180]	
1380	800		CCNc1cc(-c2cc(Nc3ccc(F)c(C(F)(F)F)c3)nn2C[C@H](C)O)cc(C)n1 [compound 67]	
933	726		CNC(=O)Cn1nc(Nc2cccc(OC(F)(F)F)c2)cc1-c1cc(C)nc(C)c1 [compound 129]	
219	651		Cc1cc(-c2cc(Nc3ccc(F)c(C(F)(F)F)c3)nn2CC(=O)NC2CCC2)cc(C)n1 [compound 174]	

Reference: patent US8779158B2, “Trisubstituted pyrazoles as acetylcholine receptor modulators” (Janssen Pharmaceutica NV, priority 2008, dated 2014)
